How the values were obtained:
Format in all cases: physicochemical
[1] = Compression of Form A (2.5 KN, 5.0 KN); details: initial and repeat
Procedure: Compound 3 Form A material was compressed using a specac press. Approximately 125 mg of Compound 3 Form A was weighed into a 20 mL glass vial. The material was then transferred into an IR die and pressed to 2.5 KN for approx. 5 seconds. The resulting material was (ground lightly to break the disk that was returned and) analyzed by XRPD and PLM. The material was then placed back into the die and pressed to 5.0 KN (for approx. 5 seconds). The resulting material was ground lightly to break the disk that was returned and analyzed by XRPD and PLM. The procedure detail was repeated, using separate batches of solid for 2.5 KN and 5.0 KN experiments. XRPD analysis and PLM analysis was completed on the material returned after pressing. All samples returned Form A material by XRPD and consisted of small birefringent particles with no clear morphology by PLM (FIG. 35A-FIG. 35C).

[2] = Variable humidity XRPD (VH-XRPD); details: between 0 and 90% RH
Procedure: […] analysis was carried out on a Philips X'Pert Pro Multipurpose diffractometer equipped with a humidity chamber. The samples were scanned between 4 and 35.99°2θ using Cu K radiation (α1λ=1.54060 Å; α2=1.54443 Å; β=1.39225 Å; α1; α2 ratio=0.5) running in Bragg-Brentano geometry (step size 0.008°2θ) using 40 kV/40 mA generator settings. Table 10 details the humidity program used.

[3] = Hydration study in 2-propanol/water systems
Procedure: A hydration study of Compound 3 Form A was conducted using 4 different aw 2-propanol/water solvent systems. Approximately 20 mg of Compound 3 Form A was weighed into four 2 mL glass vials. An appropriate volume of solvent system was added to the solids and samples were agitated for about 48 hours under ambient conditions. After 48 hours, solids were isolated using centrifuge filtration and analyzed by XRPD. […] (FIG. 32)

[4] = Solid state stress testing (temperature, humidity, storage, photostability)
[5] = Solution stress testing (acid, base, oxidative degradation)
[6] = Polymorph study: evaporation
Procedure: Saturated solutions of Compound 3 produced from temperature cycling experiments were evaporated under ambient conditions. After approximately 4 days, observations were made, and solids recovered were analyzed by XRPD (Table 21).

[7] = X-ray powder diffraction (XRPD); details: Table 27A
Procedure: Most XRPD patterns were collected with a PANalytical X′Pert PRO MPD diffractometer using an incident beam of Cu Kα radiation produced using a long, fine-focus source and a nickel filter. The diffractometer was configured using the symmetric Bragg-Brentano geometry. Prior to the analysis, a silicon specimen (NIST SRM 640e) was analyzed to verify the observed position of the Si 111 peak is consistent with the NIST-certified position. A specimen of the sample was prepared as a thin, circular layer centered on a silicon zero-background substrate. Antiscatter slits (SS) were used to minimize the background generated by air. Soller slits for the incident and diffracted beams were used to minimize broadening from axial divergence. Diffraction patterns were collected using a scanning position-sensitive detector (X′Celerator) located 240 mm from the sample and Data Collector software v. 2.2b.
A few XRPD patterns were collected with a PANalytical X′Pert PRO MPD diffractometer using an incident beam of Cu radiation produced using an Optix long, fine-focus source. […] Prior to the analysis, a silicon specimen (NIST SRM 640e) was analyzed to verify the observed position of the Si 111 peak is consistent with the NIST-certified position. A specimen of the sample was sandwiched between 3-μm-thick films and analyzed in transmission geometry. […]

[8] = Compression study (25 kN, 50 kN; Example 13)
Procedure: A mixture of Form A ±Form B and Form B were compressed using a specac IR die press. A total of approximately 100 mg (50 mg A ±50 mg B and 100 mg B) were weighed into separate 2 mL glass vials. The solids were then placed into the IR dies and pressed under 25 kN and 50 kN for about 10-15 seconds. After pressing to 25 kN, material was removed from the dies and ground slightly. A sub-sample was taken and XRPD analysis was collected. Material was then placed back into the dies and pressed to 50 kN. After pressing to 50 kN, material was removed from the dies and ground slightly before collecting XRPD analysis. Both samples observed a small color change from white to off-white after being pressed to 25 kN. […] No single form was observed when compressing a mixture of Forms A and form B material, but a decrease in crystallinity was observed when exerting 50 kN on the mixture.

Grinding study = details: pestle and mortar
Procedure: 10 mg of the appropriate Compound 3 material (detailed in Table 28) was weighed into separate HPLC vials. The solids were then ground using a pestle and mortar. Resulting materials were analyzed by XRPD (FIG. 47). From samples where mixtures of forms were used, mixtures of forms were recovered. Where all 3 forms were used, Form A was not returned, although it is possible that the already small particle size of Form A was reduced further by grinding and therefore not detected by XRPD analysis.

## CC(=O)c1nn(CC(=O)N2[C@H](C(=O)Nc3nc(Br)ccc3C)C[C@@]3(C)C[C@@H]23)c2ccc(-c3cnc(C)nc3)cc12 [Compound 3 Form A]
[1]; 2.5 KN
  Compression: XRPD: Form A
[1]; 5.0 KN
  Compression: XRPD: Form A
[2]
  VH-XRPD: change in form with humidity: no changes in form
[3]; Water activity (aw) 0.354, 2-propanol/water, about 48 hours, ambient
  Hydration study: XRPD results: Form A
[3]; Water activity (aw) 0.526
  Hydration study: XRPD results: Form A
[3]; Water activity (aw) 0.704
  Hydration study: XRPD results: Predominantly amorphous
[3]; Water activity (aw) 0.910
  Hydration study: XRPD results: Predominantly amorphous

## CC(=O)c1nn(CC(=O)N2[C@H](C(=O)Nc3nc(Br)ccc3C)C[C@@]3(C)C[C@@H]23)c2ccc(-c3cnc(C)nc3)cc12 [Compound 3, (1R,3S,5R)-2-(2-(3-acetyl-5-(2-methylpyrimidin-5-yl)-1H-indazol-1-yl)acetyl)-N-(6-bromo-3-methylpyridin-2-yl)-5-methyl-2-azabicyclo[3.1.0]hexane-3-carboxamide]
[4]
  Solid State Stress Testing: Room Temperature storage: No degradation
[4]; 40° C./75% RH
  Solid State Stress Testing: Humidity: No degradation
[4]; 105° C. - 24 hr
  Solid State Stress Testing: Elevated temperature: No degradation
[4]; exposure to UV visible
  Solid State Stress Testing: Photostability: No light senstitivity
[5]; 0.1N HCl
  Solution stress testing: Acid degradation: Degradation observed
[5]; 0.1N NaOH
  Solution stress testing: Base degradation: Degradation observed
[5]; H2O2
  Solution stress testing: Oxidative degradation: Not susceptible to oxidation
[6]; 1-Butanol
  Crystallization technique: Evaporations: Amorphous
[6]; 2-Methyl Tetrahydrofuran, WC = weakly crystalline
  Crystallization technique: Evaporations: Form A (WC)
[6]; 2-Propanol
  Crystallization technique: Evaporations: Amorphous
[6]; 40% Ethanol / 60% Water (% v/v) calc. aw = 0.7
  Crystallization technique: Evaporations: Amorphous
[6]; 50% 2-Propanol / 50% Heptane (% v/v)
  Crystallization technique: Evaporations: Amorphous
[6]; 50% Acetonitrile / 50% Water (% v/v) calc. aw = 0.9
  Crystallization technique: Evaporations: Amorphous
[6]; 50% Ethanol / 50% Heptane (% v/v)
  Crystallization technique: Evaporations: Amorphous
[6]; 70% 2-Propanol / 30% Water (% v/v) aw = 0.8
  Crystallization technique: Evaporations: Amorphous
[6]; 95% 2-Propanol / 5% Heptane (% v/v), WC = weakly crystalline
  Crystallization technique: Evaporations: Form A (WC)
[6]; 95% Heptane / 5% 2-Propanol (% v/v)
  Crystallization technique: Evaporations: Amorphous
[6]; 95% Methanol / 5% Water (% v/v) calc. aw = 0.2
  Crystallization technique: Evaporations: Amorphous
[6]; Acetone, WC = weakly crystalline
  Crystallization technique: Evaporations: Form A (WC)
[6]; Acetonitrile
  Crystallization technique: Evaporations: Amorphous
[6]; Ethanol, WC = weakly crystalline
  Crystallization technique: Evaporations: Form A (WC)
[6]; Ethyl Acetate (dry)
  Crystallization technique: Evaporations: Amorphous
[6]; Methanol
  Crystallization technique: Evaporations: Amorphous
[6]; Methylethyl Ketone
  Crystallization technique: Evaporations: Amorphous
[6]; Methylisobutyl Ketone
  Crystallization technique: Evaporations: Amorphous
[6]; Toluene
  Crystallization technique: Evaporations: Amorphous
[6]; n-Heptane
  Crystallization technique: Evaporations: Amorphous
[6]; tert-Butylmethyl Ether, WC = weakly crystalline
  Crystallization technique: Evaporations: WC (Pattern E)

## CC(=O)c1nn(CC(=O)N2[C@H](C(=O)Nc3nc(Br)ccc3C)C[C@@]3(C)C[C@@H]23)c2ccc(-c3cnc(C)nc3)cc12 [Form B]
[7]
  XRPD: Form B
[8]; 25 kN and 50 kN
  Form change under compression (XRPD): did not change under pressure
[8]; Pressure Exerted 25 kN
  XRPD Results: Form B
[8]; Pressure Exerted 50 kN
  XRPD Results: Form B
Grinding study
  Form change upon grinding (XRPD): did not change form
